For 23 compounds, IC90 results are on record in patent publication US20220396565A1 (Hoffmann-La Roche Inc., priority 2020, published 2022).

In general, IC90 refers to the point of the concentration-response curve where the effect stands at 90%.

SMILES strings stand for the structures. Counter-ions that a name gives are not always drawn. Like-named read-outs stand apart in the source and are kept apart here.

This assay relates to Acinetobacter baumannii ATCC17961. Briefly: Antimicrobial susceptibility testing: 90% growth inhibitory concentration (IC90) determination, Iso-Sensitest broth. The following applies: Acinetobacter baumannii. It is filed as cell-based. How it is done: The in vitro antimicrobial activity of the compounds was determined according to the following procedure:
The assay used a 10-points Iso-Sensitest broth medium to measure quantitatively the in vitro activity of the compounds against Acinetobacter baumannii ATCC17978 or ATCC17961.
Stock compounds in DMSO were serially twofold diluted (e.g. range from 10 to 0.02 μM final concentration) in 384 wells microtiter plates and inoculated with 49 μl the bacterial suspension in Iso-Sensitest medium to have a final cell concentration of ˜5×10^(5) CFU/ml in a final volume/well of 50 ul/well. Microtiter plates were incubated at 35±2° C.
Bacterial cell growth was determined with the measurement of optical density at k=600 nm each 20 minutes over a time course of 16 h. Growth inhibition was calculated during the logarithmic growth of the bacterial cells with determination of the concentration inhibiting 50% (IC50) and 90% (IC90) of the growth.
Table 1 provides the 90% growth inhibitory concentrations (IC90) in micromoles per liter of the compounds of present invention obtained against the strain Acinetobacter baumannii ATCC17978 or ATCC17961.

Where [1] appears, read: ATCC17961, 90% growth inhibitory concentration, Acinetobacter baumannii ATCC17961, Iso-Sensitest broth, read-out: ATCC 17961 IC90.
Setting [2] is: ATCC17961, read-out: ATCC 17961 IC90.

As for `Cn1c(-c2ccc(OCF)c(F)c2F)cnc1C(=O)Nc1ccc(C(=O)N2CCN(C(=O)C3CNCC3O)CC2)c(Cl)c1` (centres unmarked) [Example 148, N-[3-chloro-4-[4-(4-hydroxypyrrolidine-3-carbonyl)piperazine-1-carbonyl]phenyl]-5-[2,3-difluoro-4-(fluoromethoxy)phenyl]-1-methyl-imidazole-2-carboxamide formate], the IC90 under setting [1] is 0.04 µM. Same read-out and setting: the value for `COc1ccc(-c2cnc(C(=O)Nc3ccc(C(=O)N4CCC(NC(=O)C5CCNCC5)C4)c(Cl)c3)n2C)c(F)c1F` (centres unmarked) [Example 110, N-[1-[2-chloro-4-[[5-(2,3-difluoro-4-methoxy-phenyl)-1-methyl-imidazole-2-carbonyl]amino]benzoyl]pyrrolidin-3-yl]piperidine-4-carboxamide formate] was 0.18 µM. Take `Cn1c(-c2ccc(OC(F)F)c(F)c2F)cnc1C(=O)Nc1ccc(C(=O)N2CCC(C(=O)N3CC[C@@H](N)C3)CC2)c(Cl)c1` [Example 45, N-[4-[4-[(3R)-3-aminopyrrolidine-1-carbonyl]piperidine-1-carbonyl]-3-chloro-phenyl]-5-[4-(difluoromethoxy)-2,3-difluoro-phenyl]-1-methyl-imidazole-2-carboxamide trifluoroacetate]: the 90% effect concentration (IC90) under setting [1] was determined as 0.08 µM. The same measure, in the same setting: the value for `COc1ccc(-c2cnc(C(=O)Nc3ccc(C(=O)N4CCN(C(=O)C[C@H]5CCNC5)CC4)c(Cl)c3)n2C)c(F)c1F` [Example 153, N-[3-chloro-4-[4-[2-[(3R)-pyrrolidin-3-yl]acetyl]piperazine-1-carbonyl]phenyl]-5-(2,3-difluoro-4-methoxy-phenyl)-1-methyl-imidazole-2-carboxamide formate] was 0.06 µM. On the same count and under the same terms, in the case of `CN(C)CCN1CCN(C(=O)c2ccc(NC(=O)c3ncc(-c4ccc(Oc5ncccn5)c(F)c4F)n3C)cc2Cl)CC1` [Example 273, N-[3-chloro-4-[4-[2-(dimethylamino)ethyl]piperazine-1-carbonyl]phenyl]-5-(2,3-difluoro-4-pyrimidin-2-yloxy-phenyl)-1-methyl-imidazole-2-carboxamide trifluoroacetate] it was 1.3 µM; in that of `Cn1c(-c2ccc(OC(F)F)c(F)c2F)cnc1C(=O)Nc1ccc(C(=O)N2CCN(C(=O)[C@@H]3C[C@@H](O)CN3)CC2)c(Cl)c1` [Example 163, N-[3-chloro-4-[4-[(2S,4R)-4-hydroxypyrrolidine-2-carbonyl]piperazine-1-carbonyl]phenyl]-5-[4-(difluoromethoxy)-2,3-difluoro-phenyl]-1-methyl-imidazole-2-carboxamide formate], 0.04 µM; in that of `Cn1c(-c2ccc(OCC#N)c(F)c2F)cnc1C(=O)Nc1ccc(C(=O)N2CCN(C(=O)CN3CC(C(=O)O)C3)CC2)c(Cl)c1` [Example 212, 1-(2-(4-(2-chloro-4-(5-(4-(cyanomethoxy)-2,3-difluorophenyl)-1-methyl-1H-imidazole-2-carboxamido)benzoyl)piperazin-1-yl)-2-oxoethyl)azetidine-3-carboxylic acid 2,2,2-trifluoroacetate], 0.85 µM. On the same count and under the same terms, in the case of `Cn1c(-c2ccc(CC#N)cc2F)cnc1C(=O)Nc1ccc(C(=O)N2CCN(C(=O)C3CCNCC3)CC2)c(Cl)c1` [Example 256, N-[3-chloro-4-[4-(piperidine-4-carbonyl)piperazine-1-carbonyl]phenyl]-5-[4-(cyanomethyl)-2-fluoro-phenyl]-1-methyl-imidazole-2-carboxamide formate] it was 8.7 µM; in that of `COc1ccc(-c2cnc(C(=O)Nc3ccc(C(=O)N4CCN(C(=O)[C@@H]5CCN5)CC4)c(Cl)c3)n2C)c(F)c1F` [Example 150, N-[4-[4-[(2S)-azetidine-2-carbonyl]piperazine-1-carbonyl]-3-chloro-phenyl]-5-(2,3-difluoro-4-methoxy-phenyl)-1-methyl-imidazole-2-carboxamide formate], 0.08 µM. As for `Cn1c(-c2ccc(OCF)c(F)c2Cl)cnc1C(=O)Nc1ccc(C(=O)N2CCN(C(=O)CC3(O)CCNCC3)CC2)c(Cl)c1` [Example 173, 5-[2-chloro-3-fluoro-4-(fluoromethoxy)phenyl]-N-[3-chloro-4-[4-[2-(4-hydroxy-4-piperidyl)acetyl]piperazine-1-carbonyl]phenyl]-1-methyl-imidazole-2-carboxamide formate], the IC90 under setting [1] worked out at 0.05 µM. As for `Cn1c(-c2ccc(OCC#N)c(F)c2F)cnc1C(=O)Nc1ccc(C(=O)N2CCN(C(=O)N[C@H]3CNC[C@@H]3O)CC2)c(Cl)c1` [Example 282], the IC90 under setting [1] is 0.06 µM. Still for that read-out and setting: in the case of `COc1ccc(-c2cnc(C(=O)Nc3ccc(C(=O)N4CCC(NC(=O)CCOCCN)C4)c(Cl)c3)n2C)c(F)c1F` (centres unmarked) [Example 111, N-[4-[3-[3-(2-aminoethoxy)propanoylamino]pyrrolidine-1-carbonyl]-3-chloro-phenyl]-5-(2,3-difluoro-4-methoxy-phenyl)-1-methyl-imidazole-2-carboxamide formate] it was 0.3 µM. Still for that read-out and setting: in the case of `COc1ccc(-c2cnc(C(=O)Nc3ccc(C(=O)N4CCN(C(=O)C5CCNCC5)CC4)c(Cl)c3)n2C)cc1C#N` [Example 192, N-[3-chloro-4-[4-(piperidine-4-carbonyl)piperazine-1-carbonyl]phenyl]-5-(3-cyano-4-methoxy-phenyl)-1-methyl-imidazole-2-carboxamide formate] it was 0.46 µM; in that of `COc1ccc(-c2cnc(C(=O)Nc3ccc(C(=O)N4CCN(C(=O)C[C@@H]5CCNC5)CC4)c(Cl)c3)n2C)c(Cl)c1F` [Example 167, 5-(2-chloro-3-fluoro-4-methoxy-phenyl)-N-[3-chloro-4-[4-[2-[(3S)-pyrrolidin-3-yl]acetyl]piperazine-1-carbonyl]phenyl]-1-methyl-imidazole-2-carboxamide formate], 0.05 µM; in that of `COc1ccc(-c2cnc(C(=O)Nc3ccc(C(=O)N4CC5(CNC5)C4)c(Cl)c3)n2C)c(F)c1F` [Example 42, N-[3-chloro-4-(2,6-diazaspiro[3.3]heptane-2-carbonyl)phenyl]-5-(2,3-difluoro-4-methoxy-phenyl)-1-methyl-imidazole-2-carboxamide trifluoroacetate], 0.17 µM.

Consider `Cn1c(-c2ccc(F)c(F)c2F)cnc1C(=O)Nc1ccc(C(=O)N2CCN(C(=O)C3CCNCC3)CC2)c(Cl)c1` [Example 191, N-[3-chloro-4-[4-(piperidine-4-carbonyl)piperazine-1-carbonyl]phenyl]-1-methyl-5-(2,3,4-trifluorophenyl)imidazole-2-carboxamide formate], for which the IC90 under setting [1] was found to be 0.23 µM. `COc1ccc(-c2cnc(C(=O)Nc3ccc(C(=O)N4CCN(C(=O)N[C@H]5CNC[C@@H]5O)CC4)c(Cl)c3)n2C)c(F)c1F` [Example 283, 4-[2-chloro-4-[[5-(2,3-difluoro-4-methoxy-phenyl)-1-methyl-imidazole-2-carbonyl]ami-no]benzoyl]-N-[(3R,4R)-4-hydroxypyrrolidin-3-yl]piperazine-1-carboxamide formate]: the concentration for an effect of 90% (IC90) under setting [1] was found to be 0.04 µM. As for `COc1ccc(-c2cnc(C(=O)Nc3ccc(C(=O)N4CCN(C(=O)C56CC(N)(C5)C6)CC4)c(Cl)c3)n2C)c(F)c1F` [Example 132, N-[4-[4-(3-aminobicyclo[1.1.1]pentane-1-carbonyl)piperazine-1-carbonyl]-3-chloro-phenyl]-5-(2,3-difluoro-4-methoxy-phenyl)-1-methyl-imidazole-2-carboxamide formate], the concentration for an effect of 90% (IC90) under setting [1] worked out at 0.07 µM. On to `COc1ccc(-c2cnc(C(=O)Nc3ccc(C(=O)N4CCC(NS(=O)(=O)C5CCNCC5)CC4)c(Cl)c3)n2C)c(F)c1F` [Example 235, N-[3-Chloro-4-[4-(4-piperidylsulfonylamino)piperidine-1-carbonyl]phenyl]-5-(2,3-difluoro-4-methoxy-phenyl)-1-methyl-imidazole-2-carboxamide formate], for which the IC90 under setting [2] is 0.06 µM. Take `COc1ccc(-c2cnc(C(=O)Nc3ccc(C(=O)N4CCN(S(=O)(=O)C5CCNC5)CC4)c(Cl)c3)n2C)c(F)c1F` (centres unmarked) [Example 241, N-[3-chloro-4-(4-pyrrolidin-3-ylsulfonylpiperazine-1-carbonyl)phenyl]-5-(2,3-difluoro-4-methoxy-phenyl)-1-methyl-imidazole-2-carboxamide]: the IC90 under setting [1] amounted to 0.15 µM. As for `Cn1c(-c2ccc(OCC#N)c(F)c2F)cnc1C(=O)Nc1ccc(C(=O)N2CCN(C(=O)N[C@@H]3CNC[C@H]3O)CC2)c(Cl)c1` [Example 7], the IC90 under setting [2] is 0.07 µM. For the compound `Cn1c(-c2ccc(OCC#N)c(F)c2F)cnc1C(=O)Nc1ccc(C(=O)N2CCN(CCNC(=O)[C@H]3CCCN3)CC2)c(Cl)c1` [Example 213, (R)-N-(3-chloro-4-(4-(2-(pyrrolidine-2-carboxamido)ethyl)piperazine-1-carbonyl)phenyl)-5-(4-(cyanomethoxy)-2,3-difluorophenyl)-1-methyl-1H-imidazole-2-carboxamide 2,2,2-trifluoroacetate], the IC90 under setting [1] is 0.1 µM. For `Cn1c(-c2ccc(OCC#N)c(F)c2F)cnc1C(=O)Nc1ccc(C(=O)N2CCN(C(=O)NCCN)CC2)c(Cl)c1` [Example 281, N-(2-Aminoethyl)-4-(2-chloro-4-(5-(4-(cyanomethoxy)-2,3-difluorophenyl)-1-methyl-1H-imidazole-2-carboxamido)benzoyl)piperazine-1-carboxamide 2,2,2-trifluoroacetate], the IC90 under setting [2] was found to be 0.06 µM.
